The results in this text go back to patent US20210085801A1, “A[…] COPOLYMERS, […], AND METHODS FOR TREATING OR […] FAILURE” (CARDIOL THERAPEUTICS INC., priority 2017, published 2021).

In general, Cmax refers to the highest concentration seen after dosing.

Structures are written as SMILES.

Series [1] can be described thus: In vitro release study (dialysis bag, 4% BSA). Particulars: dialysis bag in 300 mL 4% BSA, 37° C. Format: physicochemical. As for the experimental part: An in vitro release study was performed to determine the in vitro release characteristic of free CBD and the above micelle encapsulated CBD formulations (Micellar CBD (DP 23) and d Micellar CBD (DP 15)).
Each of three formulations shown in Table 4 having equal concentrations of CBD were placed in separate Spectra/Por dialysis bags (molecular weight cut-off=12,000-14,000 g mol-1). The dialysis bags were sealed with clips and placed in a beaker with 300 mL 4% bovine serum albumin (BSA), then in a 37° C. shaker. At time 0 and 24 hours, the volume within each bag was measured, and a sample of each solution was taken from inside the dialysis bag and quantified by HPLC. The protocol that was used is described in Aliabadi et al, Journal of Controlled Release (2005) 104 (2), 301-311, which protocol is incorporated herein by reference.

The nature of series [2]: Pharmacokinetic animal study, subcutaneous injection. Conditions: SC, single dose 10 mg/kg, rats, plasma CBD.
Method: Cannulated adult male Sprague-Dawley rats were used for the pharmacokinetic experiments.
Rats were divided into 2 groups (n=4/group). Groups 1 and 2 received CBD either encapsulated in PEO-PBCL23 (referred to herein as Micellar CBD (DP 23)) or in free form (CBD dissolved in polyethylene glycol 400 (also referred to as PEG 400)). The administration was by way of subcutaneous injection in the right flank. A single dose of 10 mg/kg was administered to the rats of all groups.
Serial blood samples (200 μL) were collected using jugular vein catheters prior to CBD administration and at 0.25, 0.5, 0.75, 1, 2, 4, 6, 12 and 24, 48 and 72 hours post CBD administration. Plasma was separated (by using a centrifuge) from the samples and kept at −20° C. until it was analyzed for drug content.
100 μL of plasma samples were analyzed for CBD content as follows. The samples were spiked with internal standard (CBD d3 1 μg/mL) and 400 μL of cold acetonitrile was added to each sample. The mixture was vortexed for 1 minute and then 400 μL of water was added and the resulting mixture was further vortexed for 1 minute. Then 4 mL n-Hexane was added and the resulting mixture further vortexed for 5 minutes. The samples were centrifuged at 1160×g for 15 minutes and the organic phase layers were separated and transferred to clean tubes and evaporated to dryness. The residue was then analyzed for CBD content using a liquid chromatography-mass spectrometry (LC-MS) method involving the use of a Waters Quattro Micro triple quadrupole mass spectrometer. The residue samples were ran in MRM mode using the 315 to 193 transition for CBD, 318 to 196 for Cannabidiol-D3 solution and 311 to 223 for Cannabinol (CBN). A C18 Agilent Poroshell 120 EC column (2.1×50 mm; 2.7 μm particles) was used. The mobile phase consisted of 0.1% formic acid in HPLC-grade water (Solution A) and 0.1% formic acid in HPLC-grade acetonitrile (Solution B). A gradient elution was programmed to co33mmence with 40% Solution B for post-injection followed by gradual increase in 3 min. of Solution B to 95%. […] The flow rate was 0.3 mL/min. and 2 μL was injected. The lowest limit of quantification was set at 10 ng/mL.
The total amount of CBD that entered the bloodstream (AUC0-t; 72 h) was calculated using the trapezoidal rule from 0 to the last measured plasma concentration (Clast). The terminal elimination rate constant (β) was estimated using the linear least square regression of the log-linear phase of the concentration-time. Cmax and Tmax were the highest observed concentration and corresponding sampling time point.

Turning to `C=C(C)[C@@H]1CCC(C)=C[C@H]1c1c(O)cc(CCCCC)cc1O` [Free-CBD, Cannabidiol], the “% CBD released after 24 hours” value in series [1] is on record as “rapid release”. Also, in series [1] (listed as Free-CBD dissolved in acetonitrile), the “% CBD released after 24 hours” value was 70.65%. In series [2], the AUC0-6 was 209.45 ± 210.52 ng·h/mL, the AUC0-72 h stood at 687.12 ± 217.39 ng·h/mL, the maximum concentration (Cmax) turned out to be 94 ± 86.27 ng/mL and the tmax is on record as 9 ± 10.13 h.
